In US8691534B2, “Preparation of romidepsin” (Celgene Corporation, priority 2006, dated 2014):

Assay: pH-dependent stability of romidepsin in solution during production, purification and storage
Type: physicochemical
Source text: Based on this recognition, the present invention provides a system for reproducibly preparing romidepsin under conditions that reduce the levels of these contaminating side products. […] This improvement in the purification process of romidepsin allows for higher yields of romidepsin and/or higher purity romidepsin than that provided by known processes. Such an improvement is particularly useful for preparing pharmaceutical grade romidepsin for use in humans.
Romidepsin is a cyclic depsipeptide having a disulfide bond. […] Such adducts are typically insoluble and difficult to remove from purified romidepsin. In certain embodiments, such contaminating adducts prevent a preparation of romidepsin from meeting the desired specifications (e.g., solubility, degree of purity, optical rotation, etc.). In pharmaceutical compositions, these adducts decrease the purity of the active agent, romidepsin. Since romidepsin is being used as a pharmaceutical agent in humans, it is important that pure, stable, monomeric romidepsin be reproducibly obtained from a fermentation of Chromobacterium violaceum. The present invention stems from the recognition that alkaline conditions cause the formation of these undesired romidepsin adducts and provides a novel solution to this problem.

## C/C=C1\NC(=O)[C@H]2CSSCC/C=C/[C@H](CC(=O)N[C@H](C(C)C)C(=O)N2)OC(=O)[C@H](C(C)C)NC1=O [Romidepsin, (1S,4S,10S,16E,21R)-7-[(2Z)-ethylidene]-4,21-diisopropyl-2-oxa-12,13-dithia-5,8,20,23-tetraazabicyclo[8.7.6]tricos-16-ene-3,6,9,19,22-pentanone]
Basic conditions, e.g. greater than an apparent pH of ~7
  reduction of the disulfide bond: facilitates the reduction of this disulfide bond
producing, purifying and/or storing at an apparent pH less than approximately 6.5, more preferably less than approximately 6.0
  formation of dimerized, oligomerized, or polymerized romidepsin: prevent the formation of dimerized, oligomerized, or polymerized romidepsin
